Test results from patent US12351877B2, “Systems and methods for determining a treatment course of action” (Arizona Board of Regents on Behalf of the University of …, priority 2018, dated 2025).

Assays:
[1] = test system: MCF7 cells; experiment: Live-cell TIRFM of SCABs before and after inhibiting contractility; type: cell-based, human; conditions: 25 uM ROCK inhibitor
Source text: (§1) The relationship between cortical contractility and membrane motility dynamics was further examined. Using live-cell Total Internal Reflection Fluorescence Microscopy (TIRFM), SCABs at the leading edge of MCF7 and T47D cells were imaged before and after inhibiting contractility using the ROCK inhibitor, Y-27632; the actin cytoskeleton was labeled with iRFP-Lifeact, and SCABs with MLC-mRuby2. […] In addition, the existence of SCABs, their contractile nature, and their suppressive effects were validated in two types of epithelial cells: MDCK canine kidney epithelial cells, and Caco-2 human intestinal epithelial cells (FIGS. 3c and 3d). […] ER is potentially enriching for SCABs by inducing the expression of actin regulators that promote SCAB formation.

[2] = test system: T47D cells; experiment: as above; type: cell-based, human; conditions: 25 uM ROCK inhibitor
Source text: as §1

[3] = test system: MDCK canine kidney epithelial cells; experiment: Leading edge kymography before and after dissolving SCABs; type: cell-based; conditions: 25 μM ROCK inhibitor, dissolution of SCABs
Source text: as §1

[4] = test system: Caco-2 human intestinal epithelial cells; experiment: as above; type: cell-based; conditions: 25 μM ROCK inhibitor, dissolution of SCABs
Source text: as §1

C[C@@H](N)[C@H]1CC[C@H](C(=O)Nc2ccncc2)CC1 [Y-27632]
SCABs [1]: dissolution of SCABs
MLC at the leading edge ([1]; MLC-mRuby2): loss of MLC
protrusive activity ([1]; iRFP-Lifeact): rapid increase
SCABs [2]: dissolution of SCABs
MLC at the leading edge ([2]; MLC-mRuby2): loss of MLC
protrusive activity ([2]; iRFP-Lifeact): rapid increase
motility dynamics of the leading edge [3]: dramatically increased
motility dynamics of the leading edge ([3]; listed as ROCK inhibitor): increased
motility dynamics of the leading edge [4]: dramatically increased
motility dynamics of the leading edge ([4]; listed as ROCK inhibitor): increased
